{
  "source": "patent US7332200B1",
  "about": "“Permeabilizing biofilms” (The General Hospital Corporation, priority 1999, dated 2008)",
  "system": "A. viscosus in biofilms",
  "test": "Phototoxicity (bacterial killing, colony counts) of methylene blue on A. viscosus biofilms with red light, with or without a stress wave",
  "assay_type": "cell-based",
  "method": "The biofilms were grown on enamel surfaces as described in Example 1. Biofilms were incubated with methylene blue for 1 or 5 minutes and exposed to stress waves (one pulse), after which they were exposed to 666 nm red light with a fluence of 15 J/cm^2 at an irradiance of 50 mW/cm^2. In control samples, biofilms were treated only with methylene blue, or were treated with methylene blue and exposed to red light, but without stress waves. An argon ion laser with an emission of 514.5. nm was used to pump a dye laser. The laser light was coupled into a 1.0 mm quartz fiber and appropriate spot sizes were created with an objective lens.\nAfter illumination, adherent bacteria from the samples as treated above were scraped from the enamel surfaces with a sterile blade and dispersed in trypticase soy broth. Serial dilutions were prepared, and 100 μl aliquots were spread over the surfaces of blood agar plates. Survival fractions from each biofilm were calculated by counting the colonies on the plates and dividing by the number of colonies from dark controls incubated with the drug and kept at room temperature for periods equal to irradiation time. Other controls were: 1) biofilms untreated with methylene blue, light, or stress waves; 2) biofilms exposed only to a stress wave; 3) biofilms exposed to light without methylene blue; and 4) biofilms exposed to light after incubation with methylene blue.",
  "data": [
    {"smiles": "CN(C)c1ccc2nc3ccc(=[N+](C)C)cc-3sc2c1", "note": "[methylene blue]", "values": [
      {"measurement": "bacteria associated with biofilms killed", "setting": "five-minute incubation with 50 μg/ml methylene blue, red light, no stress wave", "value": 57, "unit": "%"},
      {"measurement": "bacteria associated with biofilms killed", "setting": "five-minute incubation with 50 μg/ml methylene blue, stress wave (one pulse) and 666 nm red light 15 J/cm^2", "value": 99, "unit": "%"},
      {"measurement": "bacteria associated with biofilms killed", "setting": "one-minute incubation with 50 μg/ml methylene blue, red light, no stress wave", "value": 34, "unit": "%"},
      {"measurement": "bacteria associated with biofilms killed", "setting": "one-minute incubation with 50 μg/ml methylene blue, stress wave (one pulse) and red light", "value": 96.5, "unit": "%"}
    ]}
  ]
}
